Data: ChEMBL document CHEMBL4673259, “Discovery of isoquinolinone and naphthyridinone-based inhibitors of poly(ADP-ribose) polymerase-1 (PARP1) as anticancer agents: Structure activity relationship and preclinical characterization” (Bioorg Med Chem, 2020)
Activity calls are given as the source filed them. The calls are words filed in the database; no cut-off is given here.

Tests used:
[1] = molecular target: Poly [ADP-ribose] polymerase 2 (Homo sapiens, UniProt Q9UGN5); experiment: Inhibition of N-terminal GST-tagged human PARP2 (2 to 583 residues) expressed in baculovirus infected Sf9 cells using histone mixture (H2A and H2B) and biotinylated NAD+ as substrate in presence of activated DNA incubated for 60 mins by chemiluminescence assay
Poly [ADP-ribose] polymerase 2, sequence (Q9UGN5 whole entry, the tested form may be a part): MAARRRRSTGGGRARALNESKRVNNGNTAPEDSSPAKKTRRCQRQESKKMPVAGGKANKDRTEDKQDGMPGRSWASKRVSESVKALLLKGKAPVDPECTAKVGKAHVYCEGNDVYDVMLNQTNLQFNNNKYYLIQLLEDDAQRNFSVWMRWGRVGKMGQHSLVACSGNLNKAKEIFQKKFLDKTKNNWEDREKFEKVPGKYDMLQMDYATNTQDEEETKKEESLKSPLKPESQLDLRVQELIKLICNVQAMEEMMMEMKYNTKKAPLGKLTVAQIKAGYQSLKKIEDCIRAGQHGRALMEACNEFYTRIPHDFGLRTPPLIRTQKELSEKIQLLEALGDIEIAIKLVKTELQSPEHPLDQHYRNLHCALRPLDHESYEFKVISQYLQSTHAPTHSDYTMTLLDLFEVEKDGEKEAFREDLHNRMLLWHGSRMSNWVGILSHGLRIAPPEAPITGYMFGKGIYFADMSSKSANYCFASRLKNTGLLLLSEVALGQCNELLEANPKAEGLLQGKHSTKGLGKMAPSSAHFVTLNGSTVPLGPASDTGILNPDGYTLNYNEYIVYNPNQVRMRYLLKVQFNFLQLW

[2] = molecular target: Poly [ADP-ribose] polymerase 1 (Homo sapiens, UniProt P09874); experiment: Inhibition of PARP1 in human MDA-MB-436 cells assessed as inhibition of PARylation at 10 nM incubated for 1 hr by chemiluminescence assay; assay type: cell-based
Poly [ADP-ribose] polymerase 1, sequence (P09874 whole entry): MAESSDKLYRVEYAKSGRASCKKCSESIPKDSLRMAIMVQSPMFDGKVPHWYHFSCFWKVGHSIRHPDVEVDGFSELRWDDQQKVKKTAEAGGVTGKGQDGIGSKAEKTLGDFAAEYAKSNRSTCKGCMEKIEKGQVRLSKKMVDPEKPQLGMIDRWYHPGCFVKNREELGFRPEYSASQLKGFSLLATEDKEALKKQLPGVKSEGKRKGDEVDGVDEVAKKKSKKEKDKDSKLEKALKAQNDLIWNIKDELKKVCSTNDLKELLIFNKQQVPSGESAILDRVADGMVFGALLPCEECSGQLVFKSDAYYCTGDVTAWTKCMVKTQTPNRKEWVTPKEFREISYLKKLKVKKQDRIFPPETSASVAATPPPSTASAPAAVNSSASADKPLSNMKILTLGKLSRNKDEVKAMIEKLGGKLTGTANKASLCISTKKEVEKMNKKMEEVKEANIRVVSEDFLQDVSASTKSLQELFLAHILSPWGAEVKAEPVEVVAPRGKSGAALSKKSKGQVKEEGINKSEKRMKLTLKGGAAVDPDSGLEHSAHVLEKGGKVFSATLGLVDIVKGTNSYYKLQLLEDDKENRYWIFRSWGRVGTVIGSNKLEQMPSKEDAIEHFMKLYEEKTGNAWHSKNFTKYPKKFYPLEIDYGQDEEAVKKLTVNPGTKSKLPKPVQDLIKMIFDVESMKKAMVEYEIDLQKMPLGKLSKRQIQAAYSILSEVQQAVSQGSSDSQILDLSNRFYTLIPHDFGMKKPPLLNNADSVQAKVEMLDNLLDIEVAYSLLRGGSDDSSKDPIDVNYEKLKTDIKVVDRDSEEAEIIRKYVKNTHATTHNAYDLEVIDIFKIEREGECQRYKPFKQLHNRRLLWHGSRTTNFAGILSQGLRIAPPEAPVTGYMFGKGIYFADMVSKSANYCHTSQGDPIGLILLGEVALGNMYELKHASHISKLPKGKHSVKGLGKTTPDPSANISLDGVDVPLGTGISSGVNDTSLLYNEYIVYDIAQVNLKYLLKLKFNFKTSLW

[3] = Tmax in BALB/c mouse at 1 mg/kg, iv measured up to 24 hrs by LC-MS/MS analysis; assay type: ADME, organism-based; details: in vivo
[4] = Tmax in BALB/c mouse at 10 mg/kg, po measured up to 24 hrs by LC-MS/MS analysis; assay type: ADME, organism-based; details: in vivo
[5] = Cmax in BALB/c mouse at 1 mg/kg, iv measured up to 24 hrs by LC-MS/MS analysis; assay type: ADME, organism-based; set-up: route intravenous, dose 1 mg/kg, time <=24; details: in vivo
[6] = Cmax in BALB/c mouse at 10 mg/kg, po measured up to 24 hrs by LC-MS/MS analysis; assay type: ADME, organism-based; set-up: route oral, dose 10 mg/kg, time <=24; details: in vivo
[7] = AUClast in BALB/c mouse at 1 mg/kg, iv measured up to 24 hrs by LC-MS/MS analysis; assay type: ADME, organism-based; set-up: route intravenous, dose 1 mg/kg, time <=24; details: in vivo
[8] = Half life in BALB/c mouse at 1 mg/kg, iv measured up to 24 hrs by LC-MS/MS analysis; assay type: ADME, organism-based; details: in vivo
[9] = Clearance in BALB/c mouse at 1 mg/kg, iv measured up to 24 hrs by LC-MS/MS analysis; assay type: ADME, organism-based; details: in vivo
[10] = Oral bioavailability in BALB/c mouse at 10 mg/kg measured up to 24 hrs by LC-MS/MS analysis; assay type: ADME, organism-based; details: in vivo
[11] = molecular target: CYP2B6 (Homo sapiens, UniProt P20813); experiment: Inhibition of CYP2B6 (unknown origin) at 10 uM relative to control; assay type: ADME
CYP2B6, sequence (P20813 whole entry): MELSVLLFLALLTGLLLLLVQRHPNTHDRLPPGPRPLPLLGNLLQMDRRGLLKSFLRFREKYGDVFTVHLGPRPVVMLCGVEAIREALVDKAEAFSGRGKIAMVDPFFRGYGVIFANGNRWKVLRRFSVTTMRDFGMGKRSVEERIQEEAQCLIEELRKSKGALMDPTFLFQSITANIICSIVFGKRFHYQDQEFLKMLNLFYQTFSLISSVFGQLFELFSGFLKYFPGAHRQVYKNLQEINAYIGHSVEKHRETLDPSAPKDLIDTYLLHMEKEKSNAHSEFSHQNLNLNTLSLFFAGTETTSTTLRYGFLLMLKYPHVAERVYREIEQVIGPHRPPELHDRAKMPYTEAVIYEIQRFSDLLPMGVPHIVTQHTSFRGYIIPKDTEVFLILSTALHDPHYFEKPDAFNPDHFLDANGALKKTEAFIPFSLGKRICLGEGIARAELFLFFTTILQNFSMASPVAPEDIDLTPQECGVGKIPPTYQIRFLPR

[12] = molecular target: CYP2D6 (Homo sapiens, UniProt P10635); experiment: Inhibition of CYP2D6 (unknown origin) at 10 uM relative to control; assay type: ADME
CYP2D6, sequence (P10635 whole entry): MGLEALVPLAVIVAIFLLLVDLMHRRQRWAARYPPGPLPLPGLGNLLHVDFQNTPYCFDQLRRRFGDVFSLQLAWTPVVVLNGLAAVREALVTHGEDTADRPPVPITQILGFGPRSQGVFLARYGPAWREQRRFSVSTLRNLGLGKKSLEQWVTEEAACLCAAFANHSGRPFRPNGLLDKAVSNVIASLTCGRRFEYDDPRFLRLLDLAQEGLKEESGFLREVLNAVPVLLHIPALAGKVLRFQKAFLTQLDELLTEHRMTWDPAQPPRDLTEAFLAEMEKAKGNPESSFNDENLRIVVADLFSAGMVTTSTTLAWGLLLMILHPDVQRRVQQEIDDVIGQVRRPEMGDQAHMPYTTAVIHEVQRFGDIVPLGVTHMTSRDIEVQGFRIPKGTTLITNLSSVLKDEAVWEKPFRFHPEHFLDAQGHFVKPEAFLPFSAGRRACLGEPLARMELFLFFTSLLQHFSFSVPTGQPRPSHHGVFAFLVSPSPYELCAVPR

[13] = molecular target: CYP3A4 (Homo sapiens, UniProt P08684); experiment: Inhibition of CYP3A4 (unknown origin) at 10 uM relative to control; assay type: ADME
CYP3A4, sequence (P08684 whole entry): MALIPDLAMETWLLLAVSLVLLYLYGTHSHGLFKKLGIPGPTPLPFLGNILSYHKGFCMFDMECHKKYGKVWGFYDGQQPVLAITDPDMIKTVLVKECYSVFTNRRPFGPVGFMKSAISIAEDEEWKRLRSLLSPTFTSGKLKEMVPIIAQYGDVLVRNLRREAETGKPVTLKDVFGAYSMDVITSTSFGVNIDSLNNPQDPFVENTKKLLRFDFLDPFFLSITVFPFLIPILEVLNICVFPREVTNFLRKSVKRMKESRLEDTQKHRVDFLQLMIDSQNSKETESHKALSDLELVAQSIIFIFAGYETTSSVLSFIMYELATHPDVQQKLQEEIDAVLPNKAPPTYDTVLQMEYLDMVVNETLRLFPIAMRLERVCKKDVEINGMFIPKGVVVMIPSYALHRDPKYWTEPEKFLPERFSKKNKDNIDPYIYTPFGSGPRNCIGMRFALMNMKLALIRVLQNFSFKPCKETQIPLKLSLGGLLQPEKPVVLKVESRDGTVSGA

[14] = Metabolic stability of the compound in mouse plasma measured up to 4 hrs; assay type: ADME, cell-free; details: read-out: Stabilty
[15] = Metabolic stability of the compound in rat plasma measured up to 4 hrs; assay type: ADME, cell-free; details: read-out: Stabilty
[16] = Metabolic stability of the compound in dog plasma measured up to 4 hrs; assay type: ADME, cell-free, Canis lupus familiaris; details: read-out: Stabilty
[17] = Metabolic stability of the compound in human plasma measured up to 4 hrs; assay type: ADME, cell-free; details: read-out: Stabilty
[18] = Protein binding in human plasma; assay type: ADME, cell-free; details: read-out: PPB (converted)
[19] = Protein binding in mouse plasma; assay type: ADME, cell-free; details: read-out: PPB (converted)
[20] = Protein binding in rat plasma; assay type: ADME, cell-free; details: read-out: PPB (converted)
[21] = test system: MCF7; experiment: Cytotoxicity against human MCF7 cells harboring wild type BRCA at 1000 nM relative to control; assay type: cell-based; details: mcf7, 1 µM
[22] = test system: MDA-MB-436; experiment: Anticancer activity against human MDA-MB-436 cells harboring BRCA mutant xenografted in po dosed SCID/nude mouse assessed as tumor growth regression administered bid and measured up to 5 weeks post-drug administration; assay type: functional, organism-based; details: dose 0.015-0.15 mg/kg, time weeks <=5
[23] = test system: MDA-MB-436; experiment: Anticancer activity against human MDA-MB-436 cells harboring BRCA mutant xenografted in SCID/nude mouse assessed as tumor growth regression at 0.015 mg/kg, po bid and measured up to 5 weeks post-drug administration; assay type: functional; details: MDA-MB-436, po, 840 h, time weeks <=5
[24] = test system: MDA-MB-436; experiment: Anticancer activity against human MDA-MB-436 cells harboring BRCA mutant xenografted in SCID/nude mouse assessed as tumor growth regression at 0.05 mg/kg, po bid and measured up to 5 weeks post-drug administration; assay type: functional; details: MDA-MB-436, po, 840 h, time weeks <=5
[25] = test system: MDA-MB-436; experiment: Potentiation of anticancer activity against human MDA-MB-436 cells harboring BRCA mutant xenografted in SCID/nude mouse assessed as tumor growth inhibition at 0.15 mg/kg, po bid for 12 days co-administered with TMZ measured up to 9 weeks post drug administration; assay type: functional; details: MDA-MB-436, po, 288 h, time 12 day
[26] = test system: MDA-MB-436; experiment: Potentiation of anticancer activity against human MDA-MB-436 cells harboring BRCA mutant xenografted in SCID/nude mouse assessed as tumor growth inhibition at 0.15 mg/kg, po bid for 12 days co-administered with TMZ measured after drug administration cessation; assay type: functional, organism-based; details: time 12.0 day
[27] = test system: CAPAN-1; experiment: Potentiation of anticancer activity against human CAPAN-1 cells harboring BRCA mutant xenografted in SCID/nude mouse assessed as tumor growth inhibition at 0.15 mg/kg, po bid for 12 days co-administered with TMZ measured up to 9 weeks post-drug administration; assay type: functional; details: CAPAN-1, po, 288 h, time 12 day
[28] = test system: SK-ES1; experiment: Potentiation of anticancer activity against human SK-ES-1 cells harboring EWSF1 translocation xenografted in SCID/nude mouse assessed as tumor growth inhibition at 0.15 mg/kg, po bid for 12 days co-administered with TMZ measured up to 9 weeks post drug administration; assay type: functional; details: 288 h, time 12 day
[29] = molecular target: Protein mono-ADP-ribosyltransferase PARP3 (Homo sapiens, UniProt Q9Y6F1); experiment: Inhibition of PARP3 (unknown origin)
Protein mono-ADP-ribosyltransferase PARP3, sequence (Q9Y6F1 whole entry): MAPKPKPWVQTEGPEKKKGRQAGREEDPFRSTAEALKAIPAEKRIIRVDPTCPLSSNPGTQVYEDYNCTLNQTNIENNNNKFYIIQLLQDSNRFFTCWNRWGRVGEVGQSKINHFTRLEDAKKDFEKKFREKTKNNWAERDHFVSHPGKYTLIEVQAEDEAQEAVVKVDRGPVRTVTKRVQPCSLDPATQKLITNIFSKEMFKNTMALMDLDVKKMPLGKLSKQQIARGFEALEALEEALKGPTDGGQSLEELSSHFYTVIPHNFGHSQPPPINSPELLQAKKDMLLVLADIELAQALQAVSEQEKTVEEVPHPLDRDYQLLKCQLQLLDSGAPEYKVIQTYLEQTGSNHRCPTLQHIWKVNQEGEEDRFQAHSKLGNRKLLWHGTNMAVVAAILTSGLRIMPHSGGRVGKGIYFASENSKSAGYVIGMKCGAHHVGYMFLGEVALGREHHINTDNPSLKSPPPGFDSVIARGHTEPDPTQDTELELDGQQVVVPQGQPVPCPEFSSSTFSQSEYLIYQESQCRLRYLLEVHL

[30] = molecular target: Poly [ADP-ribose] polymerase tankyrase-1 (Homo sapiens, UniProt O95271); experiment: Inhibition of TNKS1 (unknown origin)
[31] = molecular target: 5-hydroxytryptamine receptor 2B (Homo sapiens) (UniProt P41595); experiment: Displacement of [3H]mesulergine from human recombinant 5-HT2B receptor at 10 uM incubated for 60 mins by radiometric scintillation analysis
5-hydroxytryptamine receptor 2B (Homo sapiens), sequence (P41595 whole entry): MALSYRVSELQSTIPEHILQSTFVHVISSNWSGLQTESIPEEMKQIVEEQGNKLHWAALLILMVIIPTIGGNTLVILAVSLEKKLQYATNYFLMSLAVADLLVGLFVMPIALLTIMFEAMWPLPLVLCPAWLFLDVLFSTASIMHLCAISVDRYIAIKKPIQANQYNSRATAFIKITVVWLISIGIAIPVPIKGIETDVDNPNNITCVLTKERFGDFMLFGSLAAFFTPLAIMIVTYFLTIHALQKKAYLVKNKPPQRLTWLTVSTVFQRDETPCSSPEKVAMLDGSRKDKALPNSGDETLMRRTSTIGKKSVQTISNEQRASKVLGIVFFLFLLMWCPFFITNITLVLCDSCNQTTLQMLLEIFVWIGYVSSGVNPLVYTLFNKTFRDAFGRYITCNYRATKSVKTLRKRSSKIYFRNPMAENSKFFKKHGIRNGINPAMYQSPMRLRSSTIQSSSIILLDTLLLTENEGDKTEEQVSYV

[32] = molecular target: Adrenergic receptor alpha-1 (Homo sapiens) (UniProt P35348+P25100+P35368); experiment: Binding affinity to alpha1 adrenoceptor (unknown origin) at 10 uM; assay type: protein assay
[33] = Toxicity against SCID/nude mouse xenografted with human MDA-MB-436 cells harboring BRCA mutant assessed as body weight loss at 0.15 mg/kg, po bid for 12 days co-administered with 35 mg/kg, po TMZ; assay type: organism-based; details: in vivo, 288 h, time 12 day
[34] = molecular target: Mitogen-activated protein kinase kinase kinase 14 (Homo sapiens) (UniProt Q99558); experiment: Inhibition of NIK (unknown origin) at 10 uM
Mitogen-activated protein kinase kinase kinase 14 (Homo sapiens), sequence (Q99558 whole entry, looked up): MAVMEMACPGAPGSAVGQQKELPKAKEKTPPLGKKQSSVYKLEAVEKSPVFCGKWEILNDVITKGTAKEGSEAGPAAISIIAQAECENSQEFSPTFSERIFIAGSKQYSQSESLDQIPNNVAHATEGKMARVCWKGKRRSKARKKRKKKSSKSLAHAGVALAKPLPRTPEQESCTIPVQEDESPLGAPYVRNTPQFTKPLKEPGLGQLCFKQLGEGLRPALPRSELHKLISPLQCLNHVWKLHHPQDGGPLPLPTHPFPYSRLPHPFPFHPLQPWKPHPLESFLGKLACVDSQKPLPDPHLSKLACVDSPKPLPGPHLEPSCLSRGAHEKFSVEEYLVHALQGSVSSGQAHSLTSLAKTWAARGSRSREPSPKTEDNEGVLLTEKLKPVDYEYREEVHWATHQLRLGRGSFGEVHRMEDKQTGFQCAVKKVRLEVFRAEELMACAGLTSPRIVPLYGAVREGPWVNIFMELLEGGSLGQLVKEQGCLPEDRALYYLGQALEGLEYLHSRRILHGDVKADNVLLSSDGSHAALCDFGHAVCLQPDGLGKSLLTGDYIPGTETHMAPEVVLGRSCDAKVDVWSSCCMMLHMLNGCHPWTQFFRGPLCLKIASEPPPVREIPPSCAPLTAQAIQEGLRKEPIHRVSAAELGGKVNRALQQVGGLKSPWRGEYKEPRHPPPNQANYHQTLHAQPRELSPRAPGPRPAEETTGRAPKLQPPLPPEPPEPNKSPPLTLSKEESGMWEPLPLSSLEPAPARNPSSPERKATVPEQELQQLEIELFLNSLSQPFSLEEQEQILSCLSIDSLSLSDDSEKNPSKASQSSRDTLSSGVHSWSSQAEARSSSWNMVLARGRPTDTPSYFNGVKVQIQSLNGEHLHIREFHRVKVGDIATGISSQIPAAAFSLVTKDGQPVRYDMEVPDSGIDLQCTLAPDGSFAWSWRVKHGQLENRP

[35] = Toxicity in rat assessed as NOAEL for CNS effect; details: in vivo
[36] = Toxicity against SCID/nude mouse xenografted with human SK-ES-1 cells harboring EWSF1 translocation assessed as body weight loss at 0.15 mg/kg, po bid for 12 days co-administered with 35 mg/kg, po TMZ; assay type: organism-based; details: in vivo, 288 h, time 12 day
[37] = test system: MDA-MB-436; experiment: Potentiation of anticancer activity against human MDA-MB-436 cells harboring BRCA mutant xenografted in SCID/nude mouse assessed as tumor growth inhibition at 0.15 mg/kg, po bid for 12 days co-administered with […] measured up to 9 weeks post drug administration; assay type: functional; details: MDA-MB-436, po, time weeks <=9

SMILES: N#Cc1ccc(N2CCN([C@H]3C=C(c4cc5ncccc5c(=O)[nH]4)CC3)CC2)cc1
- IC50 [1]: 8.1 nM
- inhibition [2]: 82%
- Tmax [3]: 4.8 min
- Tmax [4]: 1 h
- Cmax [5]: 11 µM
- Cmax [6]: 31 µM
- AUC(0-t) at 24 h [7]: 94 µM·h
- half-life [8]: 5.1 h
- clearance [9]: 0.4 mL/min/kg
- bioavailability [10]: 43%
- inhibition at 10 µM [11]: ≤ 23%
- inhibition at 10 µM [12]: ≤ 23%
- inhibition at 10 µM [13]: ≤ 23%
- remaining at 4 h [14]: 80%
- remaining at 4 h [15]: 80%
- remaining at 4 h [16]: 80%
- remaining at 4 h [17]: 80%
- fraction unbound [18]: 0.017
- fraction unbound [19]: 0.074
- fraction unbound [20]: 0.056
- Activity [21]: 36%
- Activity [22]: Dose-dependent effect
- inhibition in vivo at 0.015 mg/kg [23]: 50%
- inhibition in vivo at 0.05 mg/kg [24]: 83%
- inhibition in vivo at 0.15 mg/kg [25]: > 90%
- Activity [26]: Active
- inhibition in vivo at 0.15 mg/kg [27]: 88%
- inhibition in vivo at 0.15 mg/kg [28]: 89%
- IC50 [29]: 8000 nM
- IC50 [30]: 769 nM
- Activity [31]: 70%
- Activity [32]: 70%
- Activity [33]: Non-Toxic
- inhibition [34]: 65%
- NOAEL [35]: 30 mg/kg/day
- Activity [36]: Non-Toxic
- inhibition in vivo at 0.15 mg/kg [37]: > 90%
